The values that follow come from patent US20250073180A1, “COMPOSITIONS COMPRISING NON-RACEMIC MIXTURES OF R- AND S-1,3-BUTANEDIOL AND USES THEREOF” (priority 2022, published 2025).

One series deals with dogs. Conditions: dietary levels of 0.5, 1.0 and 3.0% for two years; cited from earlier work.
The conditions of series [1]: ECHA registration dossiers; cited from earlier work.
The next series has as its system human volunteers. To be noted: bolus doses of 0.5 g/kg bw or 0.7 g/kg bw; cited from earlier work.
A further series deals with rats. To be noted: dietary levels of 1.0, 3.0 and 10% for two years; cited from earlier work.
The conditions of series [2]: 25 g/day for 28 consecutive days; cited from earlier work.
Series [3] has as its system human subjects. The experiment in a line: Biphasic Alcohol Effects Scale (BAES) questionnaire, acute pilot consumer study. It counts as in vivo. Conditions: 60 minutes following consumption of 20 g in a beverage; n=3 per group. As to the method:
(§1) Two scales were utilized: subjective effects with Biphasic Alcohol Effects Scale (BAES), a validated tool to measure the effects of drinking alcohol (Martin, C. S., et al. 1993. Alcoholism, Clinical and Experimental Research 17 (1): 140-46), and GI Tolerance with a Modified Beverage Tolerability Questionnaire (m-BTQ; Chen., 0. T., et al. 2021. Nutrients 13 (6): 2066). Participants were asked to fast for at least 2 hours before consuming the product, and complete the m-BTQ and BAES at 60 minutes following the consumption of the product.
(§2) The study population was 6 individuals between 25-40 years old. Questionnaires for the m-BTQ and BAES are provided below in Tables 1 and 2.
(§3) The six participants were between 25-40 years old, were 100% Caucasian and all (100%) identified as male.

Series [4] concerns human subjects. Kind of series: Modified Beverage Tolerability Questionnaire (m-BTQ), acute pilot consumer study. The class given is in vivo. As to the method: as §1, §2, §3

As to `CC(O)CCO` (stereo not drawn) [1,3-butanediol], the “Adverse effects attributable to ingestion” value in the series with dogs and in the series with rats was “no adverse effects attributable to the ingestion” each time. Besides, the “Acute oral, inhalation and dermal toxicity” value in series [1] was “low”. The “Side effects of bolus doses” value in the series on human volunteers was “nausea, euphoria and dizziness”.

As to `CCCCCC(=O)OCC[C@@H](C)OC(=O)CCCCC` [BH-BD, bis-hexanoyl (R)-1,3-butanediol], the “Side effects and adverse events” value in series [2] is “only mild side effects and no adverse events”.

Take `C[C@@H](O)CCO` [R-1,3-butanediol]: in the series on human subjects [3], the “Mean BAES-SED Composite Score” value was determined as 22.3 and the “Mean BAES-STIM Composite Score” value came to 41.7. Besides, in the series with human subjects [4] (60 minutes following consumption of 20 g in a beverage, fasted at least 2 hours, n=3 per group), the “Mean Composite Tolerability Score (m-BTQ)” value worked out at 8. The “Tolerability (in words)” value in the series with human subjects [4] (acute use, 20 g beverage, all participants) was “well tolerated by all participants”.
